Data published in patent US4605744A, “Imidazole derivatives” (Hoffmann-La Roche Inc., priority 1985, dated 1986).
≈ marks a conversion by molar mass, not a printed value. Where “and” joins values, the source holds several entries; their conditions need not be identical. Identical values can stand only once. Like-named read-outs stand apart in the source and are kept apart here.

Key:
Assay in all cases: In vitro antibacterial activity (MIC)
Type in all cases: cell-based
C. freundii CDC6 = conditions: Citrobacter freundii, CDC6
Method in brief: (§1)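 Overnight cultures, diluted 10^-2, were added at 1.5 μl per well to twofold drug series (128–0.008 μg/ml) in Mueller-Hinton broth.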

E. aerogenes 83 = test system: E. aerogenes 83
Method in brief: as §1

E. aerogenes 8 = test system: E. aerogenes 8
Method in brief: as §1

E. cloacae 24 = conditions: Enterobacter cloacae, 24
Method in brief: as §1

E. cloacae 9570A = conditions: Enterobacter cloacae
Method in brief: as §1

E. coli R-563 = conditions: Escherichia coli, R563
Method in brief: as §1

K. pneumoniae 35 = test system: K. pneumoniae 35
Method in brief: as §1

K. pneumoniae 503-964 = test system: K. pneumoniae 503-964
Method in brief: as §1

K. pneumoniae 5096 = test system: K. pneumoniae 5096
Method in brief: as §1

K. pneumoniae HE7 = conditions: Klebsiella pneumoniae
Method in brief: as §1

P. aeruginosa 503-56 = test system: P. aeruginosa 503-56
Method in brief: as §1

P. aeruginosa 8710 = test system: P. aeruginosa 8710
Method in brief: as §1

P. aeruginosa POW 151 = conditions: Pseudomonas aeruginosa, POW151
Method in brief: as §1

P. aeruginosa Stone 130 = test system: P. aeruginosa Stone 130
Method in brief: as §1

P. mirabilis 190 = conditions: Proteus mirabilis, 190
Method in brief: as §1

P. rettgeri ATCC 9250 = conditions: Providencia rettgeri, ATCC9250
Method in brief: as §1

S. aureus 1059B = conditions: Staphylococcus aureus
Method in brief: as §1

S. aureus Giorgio = conditions: Staphylococcus aureus
Method in brief: as §1

S. aureus Smith = test system: S. aureus Smith
Method in brief: as §1

S. faecalis C1 = test system: S. faecalis C1
Method in brief: as §1

S. marcescens S147 = conditions: Serratia marcescens
Method in brief: as §1

S. marcescens S1 = conditions: Serratia marcescens, S1
Method in brief: as §1

S. marcescens S2 = conditions: Serratia marcescens
Method in brief: as §1

S. marcescens S3 = conditions: Serratia marcescens
Method in brief: as §1

S. marcescens S4 = test system: S. marcescens S4
Method in brief: as §1

S. marcescens SM = conditions: Serratia marcescens
Method in brief: as §1

S. pneumoniae 6301 = test system: S. pneumoniae 6301
Method in brief: as §1

S. pneumoniae SC = test system: S. pneumoniae SC
Method in brief: as §1

S. pyogenes 4 = test system: S. pyogenes 4
Method in brief: as §1

S. pyogenes 503-782 = test system: S. pyogenes 503-782
Method in brief: as §1

SMILES: CC1(C)S[C@@H]2[C@H](/N=C/N3CCCCCC3)C(=O)N2[C@H]1C(=O)O [Amdinocillin, amdinocillin, reference compound]
- MIC (C. freundii CDC6): 0.125 µg/mL (≈ 0.384 µM)
- MIC (E. aerogenes 83; E. aerogenes 83): 4 µg/mL (≈ 12.3 µM)
- MIC (E. aerogenes 83; Klebsiella aerogenes, 83, E. aerogenes 83, read-out: MIC): 8 µg/mL (≈ 24.6 µM)
- MIC (E. aerogenes 8; Klebsiella aerogenes, 8, E. aerogenes 8): 128 µg/mL (≈ 393 µM)
- MIC (E. aerogenes 8; Klebsiella aerogenes, E. aerogenes 8, read-out: MIC): 0.25 µg/mL (≈ 0.768 µM)
- MIC (E. cloacae 24): 0.125 µg/mL (≈ 0.384 µM)
- MIC (E. cloacae 9570A; 9570A): 0.125 µg/mL (≈ 0.384 µM)
- MIC (E. cloacae 9570A; read-out: MIC): 0.062 µg/mL (≈ 0.191 µM)
- MIC (E. coli R-563): 0.125 µg/mL (≈ 0.384 µM)
- MIC (K. pneumoniae 35; Klebsiella pneumoniae, 35, K. pneumoniae 35): 0.125 µg/mL (≈ 0.384 µM)
- MIC (K. pneumoniae 35; Klebsiella pneumoniae, K. pneumoniae 35, read-out: MIC): 0.062 µg/mL (≈ 0.191 µM)
- MIC (K. pneumoniae 503-964; Klebsiella pneumoniae, 503964, K. pneumoniae 503-964): 0.125 µg/mL (≈ 0.384 µM)
- MIC (K. pneumoniae 503-964; Klebsiella pneumoniae, 503964, K. pneumoniae 503-964, read-out: MIC): 0.062 µg/mL (≈ 0.191 µM)
- MIC (K. pneumoniae 5096; Klebsiella pneumoniae, 5096, K. pneumoniae 5096): 128 µg/mL (≈ 393 µM)
- MIC (K. pneumoniae 5096; Klebsiella pneumoniae, K. pneumoniae 5096, read-out: MIC): 32 µg/mL (≈ 98.3 µM)
- MIC (K. pneumoniae HE7; HE7, K. pneumoniae HE7): > 128 µg/mL
- MIC (K. pneumoniae HE7; K. pneumoniae HE7, read-out: MIC): 64 µg/mL (≈ 197 µM)
- MIC (P. aeruginosa 503-56; P. aeruginosa 503-56): 128 µg/mL (≈ 393 µM)
- MIC (P. aeruginosa 503-56; Pseudomonas aeruginosa, 50356, P. aeruginosa 503-56): > 128 µg/mL
- MIC (P. aeruginosa 8710; P. aeruginosa 8710): 128 µg/mL (≈ 393 µM)
- MIC (P. aeruginosa 8710; Pseudomonas aeruginosa, 8710, P. aeruginosa 8710): > 128 µg/mL
- MIC (P. aeruginosa POW 151): > 128 µg/mL
- MIC (P. aeruginosa Stone 130): 128 µg/mL (≈ 393 µM)
- MIC (P. aeruginosa Stone 130; Pseudomonas aeruginosa, STONE130): > 128 µg/mL
- MIC (P. mirabilis 190): 0.125 µg/mL (≈ 0.384 µM)
- MIC (P. rettgeri ATCC 9250): 0.125 µg/mL (≈ 0.384 µM)
- MIC (S. aureus 1059B; 1059B): 128 µg/mL (≈ 393 µM)
- MIC (S. aureus 1059B; read-out: MIC): 64 µg/mL (≈ 197 µM)
- MIC (S. aureus Giorgio): 32 µg/mL (≈ 98.3 µM)
- MIC (S. aureus Smith; S. aureus Smith): 8 µg/mL and 16 µg/mL
- MIC (S. aureus Smith; Staphylococcus aureus): 16 µg/mL (≈ 49.2 µM)
- MIC (S. faecalis C1; Enterococcus faecalis, C1, S. faecalis C1): > 128 µg/mL
- MIC (S. faecalis C1; S. faecalis C1): 128 µg/mL (≈ 393 µM)
- MIC (S. marcescens S147; S147, S. marcescens S147): 0.125 µg/mL (≈ 0.384 µM)
- MIC (S. marcescens S147; S. marcescens S147, read-out: MIC): 0.062 µg/mL (≈ 0.191 µM)
- MIC (S. marcescens S1): 0.125 µg/mL (≈ 0.384 µM)
- MIC (S. marcescens S2; S2, S. marcescens S2): 0.125 µg/mL (≈ 0.384 µM)
- MIC (S. marcescens S2; S. marcescens S2, read-out: MIC): 0.25 µg/mL (≈ 0.768 µM)
- MIC (S. marcescens S3; S3, S. marcescens S3): 0.125 µg/mL (≈ 0.384 µM)
- MIC (S. marcescens S3; S. marcescens S3, read-out: MIC): 0.062 µg/mL (≈ 0.191 µM)
- MIC (S. marcescens S4; S. marcescens S4): 0.5 µg/mL (≈ 1.54 µM)
- MIC (S. marcescens S4; Serratia marcescens, S4, S. marcescens S4, read-out: MIC): 1 µg/mL (≈ 3.07 µM)
- MIC (S. marcescens SM): 0.125 µg/mL (≈ 0.384 µM)
- MIC (S. marcescens SM; read-out: MIC): 0.062 µg/mL (≈ 0.191 µM)
- MIC (S. pneumoniae 6301; S. pneumoniae 6301): 1 µg/mL (≈ 3.07 µM)
- MIC (S. pneumoniae 6301; Streptococcus pneumoniae, 6301, S. pneumoniae 6301, read-out: MIC): 2 µg/mL (≈ 6.15 µM)
- MIC (S. pneumoniae SC): 1 µg/mL (≈ 3.07 µM)
- MIC (S. pneumoniae SC; Streptococcus pneumoniae, read-out: MIC): 2 µg/mL (≈ 6.15 µM)
- MIC (S. pyogenes 4; S. pyogenes 4): 2 µg/mL (≈ 6.15 µM)
- MIC (S. pyogenes 4; Streptococcus pyogenes, 4, S. pyogenes 4, read-out: MIC): 1 µg/mL (≈ 3.07 µM)
- MIC (S. pyogenes 503-782; Streptococcus pyogenes, 503782, S. pyogenes 503-782): > 128 µg/mL
- MIC (S. pyogenes 503-782; Streptococcus pyogenes, 503782, S. pyogenes 503-782, read-out: MIC): 1 µg/mL (≈ 3.07 µM)
